Ki data for nine molecules are collected here from patent publication US20250213735A1, “NEUROPEPTIDE Y1 RECEPTOR (NPY1R) TARGETED THERAPEUTICS AND USES THEREOF” (Radionetics Oncology, Inc., priority 2023, published 2025).

This assay has as its target hNPY1R (Homo sapiens (Human), UniProt P25929). As to the kind of experiment: NPY1R binding assay (SK-N-MC membrane, [125I]-Peptide YY competition).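 Also: bound radioligand separated by filtration over GF/C filter plates and counted, Ki obtained by non-linear regression.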 To be noted: crude SK-N-MC membranes endogenously expressing NPY1R; [125I]-Peptide YY (human) 0.05 nM; 120 min at room temperature; read-out: hNPY1R binding Ki.

Structures are written as SMILES. Numbered stars: 1 amine (or outer) side, 2 acyl side, 3 side chain; on linkers, the order of the positions; unused ones are H or OH. Square brackets hold non-standard residues; d marks the D form. Peptide text beside a SMILES is read from it. * marks the point of attachment. dArg(Nω-CONH(CH2)2NHCOEt) = CCC(=O)NCCNC(=O)/N=C(/N)NCCC[C@@H](N)C(=O)O; DOTA = O=C(O)CN1CCN(CC(=O)O)CCN(CC(=O)*)CCN(CC(=O)O)CC1; X1 = O=C([C@H](c1ccc(OCCCN[*:1])cc1)N1Cc2ccccc2C1)[*:2]; NH(2,6-F2-4-OH-benzyl) = Oc1cc(F)c(CN*)c(F)c1; Sar = CNCC(=O)O Some results are limits rather than exact numbers.

Sequence of hNPY1R (P25929 whole entry): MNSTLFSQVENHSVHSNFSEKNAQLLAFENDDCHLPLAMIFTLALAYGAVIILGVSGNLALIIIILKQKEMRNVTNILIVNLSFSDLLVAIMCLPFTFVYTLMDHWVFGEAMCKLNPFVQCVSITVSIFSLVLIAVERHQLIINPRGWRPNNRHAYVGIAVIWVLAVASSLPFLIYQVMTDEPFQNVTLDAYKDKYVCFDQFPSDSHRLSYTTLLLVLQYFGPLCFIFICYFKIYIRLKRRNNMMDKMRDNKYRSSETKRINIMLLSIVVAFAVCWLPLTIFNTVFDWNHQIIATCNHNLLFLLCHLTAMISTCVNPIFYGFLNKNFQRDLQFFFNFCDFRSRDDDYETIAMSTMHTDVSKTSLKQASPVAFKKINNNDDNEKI

For the molecule `CCC(=O)NCCNC(=O)/N=C(/N)NCCC[C@@H](NC(=O)[C@H](c1ccccc1)N1Cc2cccc(NCCCNC(=O)C[C@H]3NC(=O)[C@@H](CCCNC(=O)CN4CCN(CC(=O)O)CCN(CC(=O)O)CCN(CC(=O)O)CC4)NC3=O)c2C1)C(=O)NCc1c(F)cc(O)cc1F` [compound 40, 2,2′,2″-(10-(2-((3-((2R,5R)-5-(2-((3-((2-((1S,4R,Z)-9-amino-4-((2,6-difluoro-4-hydroxybenzyl)carbamoyl)-2,11,16-trioxo-1-phenyl-3,8,10,12,15-pentaazaoctadec-9-en-1-yl)isoindolin-4-yl)amino)propyl)amino)-2-oxoethyl)-3,6-dioxopiperazin-2-yl)propyl)amino)-2-oxoethyl)-1,4,7,10-tetraazacyclododecane-1,4,7-triyl)triacetic acid], the Ki – broadly, the equilibrium dissociation constant of an inhibitor or competing ligand from its target – is under 10 nM.
The value for `CCC(=O)NCCNC(=O)/N=C(/N)NCCC[C@@H](NC(=O)[C@H](c1ccccc1)N1Cc2cccc(NCCCNC(=O)C[C@H](O)C[C@H](O)CCNC(=O)CN3CCN(CC(=O)O)CCN(CC(=O)O)CCN(CC(=O)O)CC3)c2C1)C(=O)NCc1c(F)cc(O)cc1F` [compound 41, 2,2′,2″-(10-(2-(((3R,5R)-7-((3-((2-((1S,4R,Z)-9-amino-4-((2,6-difluoro-4-hydroxybenzyl)carbamoyl)-2,11,16-trioxo-1-phenyl-3,8,10,12,15-pentaazaoctadec-9-en-1-yl)isoindolin-4-yl)amino)propyl)amino)-3,5-dihydroxy-7-oxoheptyl)amino)-2-oxoethyl)-1,4,7,10-tetraazacyclododecane-1,4,7-triyl)triacetic acid] was under 10 nM; that for `CCC(=O)NCCNC(=O)/N=C(/N)NCCC[C@@H](NC(=O)[C@H](c1ccccc1)N1Cc2cccc(NCCCNC(=O)CCC(=O)NCCNC(=O)CN3CCN(CC(=O)O)CCN(CC(=O)O)CCN(CC(=O)O)CC3)c2C1)C(=O)NCc1c(F)cc(O)cc1F` [compound 42, 2,2′,2″-(10-(2-((2-(4-((3-((2-((1S,4R,Z)-9-amino-4-((2,6-difluoro-4-hydroxybenzyl)carbamoyl)-2,11,16-trioxo-1-phenyl-3,8,10,12,15-pentaazaoctadec-9-en-1-yl)isoindolin-4-yl)amino)propyl)amino)-4-oxobutanamido)ethyl)amino)-2-oxoethyl)-1,4,7,10-tetraazacyclododecane-1,4,7-triyl)triacetic acid] was under 10 nM.
To `CCC(=O)NCCNC(=O)/N=C(/N)NCCC[C@@H](NC(=O)[C@H](c1ccc(OCCCNC(=O)CCC(=O)NCCOCCNC(=O)CN2CCN(CC(=O)O)CCN(CC(=O)O)CCN(CC(=O)O)CC2)cc1)N1Cc2ccccc2C1)C(=O)NCc1c(F)cc(O)cc1F` [compound 43, 2,2′,2″-(10-(17-(4-((1S,4R,Z)-9-amino-4-((2,6-difluoro-4-hydroxybenzyl)carbamoyl)-1-(isoindolin-2-yl)-2,11,16-trioxo-3,8,10,12,15-pentaazaoctadec-9-en-1-yl)phenoxy)-2,10,13-trioxo-6-oxa-3,9,14-triazaheptadecyl)-1,4,7,10-tetraazacyclododecane-1,4,7-triyl)triacetic acid] belongs under 10 nM; to `CCC(=O)NCCNC(=O)/N=C(/N)NCCC[C@@H](NC(=O)[C@H](c1ccc(OCCCNC(=O)CONC(=O)CCNC(=O)CN2CCN(CC(=O)O)CCN(CC(=O)O)CCN(CC(=O)O)CC2)cc1)N1Cc2ccccc2C1)C(=O)NCc1c(F)cc(O)cc1F` [compound 44, 2,2′,2″-(10-(14-(4-((1S,4R,Z)-9-amino-4-((2,6-difluoro-4-hydroxybenzyl)carbamoyl)-1-(isoindolin-2-yl)-2,11,16-trioxo-3,8,10,12,15-pentaazaoctadec-9-en-1-yl)phenoxy)-2,6,10-trioxo-8-oxa-3,7,11-triazatetradecyl)-1,4,7,10-tetraazacyclododecane-1,4,7-triyl)triacetic acid], under 10 nM; to `CCC(=O)NCCNC(=O)/N=C(/N)NCCC[C@@H](NC(=O)[C@H](c1ccc(OCCCNC(=O)NCCONC(=O)CN2CCN(CC(=O)O)CCN(CC(=O)O)CCN(CC(=O)O)CC2)cc1)N1Cc2ccccc2C1)C(=O)NCc1c(F)cc(O)cc1F` [compound 45, 2,2′,2″-(10-(12-(4-((1S,4R,Z)-9-amino-4-((2,6-difluoro-4-hydroxybenzyl)carbamoyl)-1-(isoindolin-2-yl)-2,11,16-trioxo-3,8,10,12,15-pentaazaoctadec-9-en-1-yl)phenoxy)-2,8-dioxo-4-oxa-3,7,9-triazadodecyl)-1,4,7,10-tetraazacyclododecane-1,4,7-triyl)triacetic acid], under 10 nM.
The value for `CCC(=O)NCCNC(=O)/N=C(/N)NCCC[C@@H](NC(=O)[C@H](c1ccc(OCCCNC(=O)CN(C)C(=O)CN(C)C(=O)CN(C)C(=O)CN2CCN(CC(=O)O)CCN(CC(=O)O)CCN(CC(=O)O)CC2)cc1)N1Cc2ccccc2C1)C(=O)NCc1c(F)cc(O)cc1F` [compound 46, 2,2′,2″-(10-(15-(4-((1S,4R,Z)-9-amino-4-((2,6-difluoro-4-hydroxybenzyl)carbamoyl)-1-(isoindolin-2-yl)-2,11,16-trioxo-3,8,10,12,15-pentaazaoctadec-9-en-1-yl)phenoxy)-3,6,9-trimethyl-2,5,8,11-tetraoxo-3,6,9,12-tetraazapentadecyl)-1,4,7,10-tetraazacyclododecane-1,4,7-triyl)triacetic acid] ({DOTA}-[Sar][Sar][Sar][X1][dArg(Nω-CONH(CH2)2NHCOEt)]-{NH(2,6-F2-4-OH-benzyl)}) was under 10 nM; that for `CCC(=O)NCCNC(=O)/N=C(/N)NCCC[C@@H](NC(=O)[C@H](c1ccc(OCCCNC(=O)CCNC(=O)CN2CCN(CC(=O)O)CCN(CC(=O)O)CCN(CC(=O)O)CC2)cc1)N1Cc2ccccc2C1)C(=O)NCc1c(F)cc(O)cc1F` [compound 47, 2,2′,2″-(10-(2-((3-((3-(4-((1S,4R,Z)-9-amino-4-((2,6-difluoro-4-hydroxybenzyl)carbamoyl)-1-(isoindolin-2-yl)-2,11,16-trioxo-3,8,10,12,15-pentaazaoctadec-9-en-1-yl)phenoxy)propyl)amino)-3-oxopropyl)amino)-2-oxoethyl)-1,4,7,10-tetraazacyclododecane-1,4,7-triyl)triacetic acid] was under 10 nM.
On to `CCC(=O)NCCNC(=O)/N=C(/N)NCCC[C@@H](NC(=O)[C@H](c1ccc(OCCCNC(=O)[C@@H](CO)NC(=O)CCNC(=O)CN2CCN(CC(=O)O)CCN(CC(=O)O)CCN(CC(=O)O)CC2)cc1)N1Cc2ccccc2C1)C(=O)NCc1c(F)cc(O)cc1F` [compound 48, 2,2′,2″-(10-(2-((3-(((R)-1-((3-(4-((1S,4R,Z)-9-amino-4-((2,6-difluoro-4-hydroxybenzyl)carbamoyl)-1-(isoindolin-2-yl)-2,11,16-trioxo-3,8,10,12,15-pentaazaoctadec-9-en-1-yl)phenoxy)propyl)amino)-3-hydroxy-1-oxopropan-2-yl)amino)-3-oxopropyl)amino)-2-oxoethyl)-1,4,7,10-tetraazacyclododecane-1,4,7-triyl)triacetic acid], for which the inhibition constant (Ki) was under 10 nM.
